Where “and” joins values, the source holds several entries; their conditions need not be identical. Identical values can stand only once. Entries after “also recorded” stand apart in the source; their conditions may differ.
Assays:
splenocytes = experiment: Immunomodulation panel: total splenocyte counts, antigen stimulated mice; type: in vivo, C57BL/6J mice
Experimental: Daily intraperitoneal injections of KCPBL were administered to normal animals and immunological responsiveness to mitogens and specific antigen evaluated.
The test compound was weighed out immediately before use and dissolved in the injection vehicle. This solution was sterile-filtered using a 0.22 micron filter and the appropriate dose injected into mice in a 0.5 ml volume. The dose was individually calculated for each animal, based on animal weight on the first day of the experiment.
Inbred C57BL/6J mice were obtained from Jackson Laboratories, Bar Harbor, Me. The animals were held for one week before use in an experiment. Prior to commencement of a study, the animals were placed into groups and weighed.
Group size ten male mice per dosage group.
Doses and schedule--Doses were selected to bracket the range generally known to be immunostimulatory in past experiments, 1, 10, and […] daily for four days.
Immunization--All animals except for sham controls were injected with 0.5 ml of a 2% suspension of sheep erythrocyte on day zero. This occurred two days following any pretreatment and the day before the initiation of study drug administration.
Sacrifice--Animals were sacrificed by cervical dislocation on day five. […]
As an assessment of immunopathology in the above screening test panel, the cellularity of the spleen was evaluated by determination of the total number of splenocytes harvested. Humoral-mediated immunity was measured by enumerating IgM plaque-forming cells to the T-dependent antigen sheep erythrocytes. Cell-mediated immunity was evaluated as described above by determination of the ability of the splenocytes to produce the lymphokine interleukin-2 in response to stimulation by the mitogen concanavalin-A. Another measurement of cell-mediated immunity was the responsiveness of the splenic lymphocytes to the mitogens concanavalin-A (Con-A); phytohemagglutinin (PHA) and pokeweed mitogen (PWM) in the lymphocyte blastogenesis assay. […] The responsiveness of the cells was measured by the uptake of radiolabeled 14C-thymidine.

CD-1 mice = experiment: Immunotoxicity--Multi-dose: survival, weight, organ and histopathology assessment; type: in vivo; conditions: for Organ weight, Kidney / Organ weight, Liver / Organ weight, Lung / Organ weight, Spleen / Organ weight, Tail: individual animals A, B
Experimental: The immunotoxicological potential of KCPBL was evaluated in this experiment in which the study drug was administered to CD-1 mice for fourteen days (100 or 1000 mg/kg/day), either perorally (by gavage) or intravenously (tail vein). On the fifteenth day, the mice were weighed and sacrificed. The spleen, lungs, liver, kidneys and thymus were removed from each animal, fixed in formalin and histopathologically evaluated. In addition, a differential white blood cell count was obtained for a peripheral blood sample as well as the following tests performed: spleen cell counts (performed with Coulter Counter) and lymphocyte stimulation assays using PHA, CON-A and PWM techniques.
CD-1 mice were obtained from Charles Rivers Laboratories. The mice were quarantined for at least one week in a separate holding room prior to use in this experiment. Five mice per treatment were used. The mice were housed in a Thoren positive pressure laminar flow Maximizer caging system with each case controlled for water and air flow. The mouse rooms are maintained on a 12-hour light/dark cycle at a constant temperature of 76° F.
KCPBL containing approximately 50:50 ratio of the two epimers as determined by HPLC and optical rotation analysis was used in this study. An amount of drug was calculated to deliver the equivalent of 100 or 1000 mg/kg, either by the oral or intravenous route. The average weight of the mice was 29.5 grams.
[…] Mice were administered KCPBL daily for a total of fourteen days via the oral (0.2 ml of a 147.5 mg/ml solution or a 29.5 mg/ml solution by gavage) and intravenous route (0.2 ml of 147.5 mg/ml solution or a 29.5 mg/ml solution by tail vein) to achieve a dose of 100 or 1000 mg/kg, respectively. The test dose was prepared fresh daily and dissolved in sterile non-pyrogenic saline. On the fifteenth day the mice were weighed, sacrificed, and the spleens, lungs, livers, kidneys and thymuses removed. These organs were weighed and, except for the spleens, the formalin-fixed organs were analyzed by a veterinary pathologist. Only two randomly-selected sets of animal organs per treatment group were histopathologically evaluated since the remaining three animals were used to isolate splenic lymphocytes for use in cellular immunoassays.
A leukocyte differential was obtained on peripheral blood samples and spleen cell counts (performed with Coulter Counter), and an IL-2 induction assessment as well as standard lymphocyte stimulation assays using PHA, CON-A and PWM conducted.
Survival was assessed through the fifteenth day. All the surviving mice were sacrificed on the fifteenth day, predetermined organs removed, place in formalin, and subjected to for histopathologic examination by a veterinary pathologist.
The individual spleens of three mice from control and test groups were processed to isolate lymphocytes and the protocols for lymphocyte blastogenesis, IL-2 induction and assay were performed. The remaining two mice in each group were sacrificed and their lungs, liver, kidney, and spleen were fixed in formalin and sent to AnMed Biosafe for histopathologic examination.

[1] = group 2 (1000 mg/kg P.O.), 1000 mg/kg
[2] = group 3 (1000 mg/kg IV), 1000 mg/kg
[3] = group 5 (100 mg/kg IV), 100 mg/kg

`O=C1CCC(C2(O)C(=O)OC3C(O)COC32O)C1` (stereo not drawn) [KCPBL] was tested. Which Splenocytes (splenocytes; 1.0 mg/kg i.p.) did it give?
Its Splenocytes is 4.34 ± 0.7 ×10^7.

And the Splenocytes (splenocytes; 10 mg/kg i.p.)?
Its Splenocytes is 3.59 ± 0.8 ×10^7.

And the Splenocytes (splenocytes; 100 mg/kg i.p.)?
Its Splenocytes is 3.62 ± 0.4 ×10^7.

What about the “PMV:Mono ratio” value (CD-1 mice; 100 mg/kg IV (group 5)) of the same compound?
Its value is 10/90.

And the “PMV:Mono ratio” value (CD-1 mice; 1000 mg/kg IV (group 3))?
The value was 11/89.

What about the “PMV:Mono ratio” value (CD-1 mice; 1000 mg/kg P.O. (group 2)) of the same compound?
The value was 21/79.

What about the “generalized toxicity / immunotoxic effect” value (CD-1 mice; 100 or 1000 mg/kg, either route) of the same compound?
Its value is “None of the mice showed evidence of generalized toxicity; also recorded: no evidence of a immunotoxic effect”.

What about the weight loss (CD-1 mice; 100 or 1000 mg/kg/day, 14 days, i.v. or p.o.) of the same compound?
Its weight loss is “No clinically significant weight loss”.

And the survival / deaths (CD-1 mice; 14 days dosing)?
The survival / deaths was “Except for treatment group 4 (KCPBL 100 mg/kg perorally), all animals survived to the conclusion of the trial; also recorded: In group 4, two animals were found dead on day 4 and another animal dead on day 10”.

And the “Organ weight, Kidney” value (CD-1 mice; [1])?
Its value is 271.7 mg and 269.8 mg.

What about the “Organ weight, Liver” value (CD-1 mice; [1]) of the same compound?
Its value is 1710 mg and 1780 mg.

What about the “Organ weight, Lung” value (CD-1 mice; [1]) of the same compound?
The value was 192.5 mg and 175.8 mg.

What about the “Organ weight, Spleen” value (CD-1 mice; [1]) of the same compound?
Its value is 102.6 mg and 103.7 mg.

What about the “Organ weight, Tail” value (CD-1 mice; [1]) of the same compound?
Its value is 236.2 mg and 229.1 mg.

And the “Organ weight, Kidney” value (CD-1 mice; [2])?
Its value is 287.1 mg and 225.3 mg.

What about the “Organ weight, Liver” value (CD-1 mice; [2]) of the same compound?
Its value is 1760 mg and 1310 mg.

What about the “Organ weight, Lung” value (CD-1 mice; [2]) of the same compound?
The value was 209.1 mg and 177.1 mg.

What about the “Organ weight, Spleen” value (CD-1 mice; [2]) of the same compound?
Its value is 110.8 mg and 75.6 mg.

What about the “Organ weight, Tail” value (CD-1 mice; [2]) of the same compound?
The value was 235.8 mg and 239.6 mg.

And the “Organ weight, Kidney” value (CD-1 mice; [3])?
The value was 235.4 mg and 377.9 mg.

What about the “Organ weight, Liver” value (CD-1 mice; [3]) of the same compound?
The value was 1570 mg and 2350 mg.

What about the “Organ weight, Lung” value (CD-1 mice; [3]) of the same compound?
Its value is 177.9 mg and 192.3 mg.

What about the “Organ weight, Spleen” value (CD-1 mice; [3]) of the same compound?
Its value is 88.7 mg and 104.2 mg.

What about the “Organ weight, Tail” value (CD-1 mice; [3]) of the same compound?
The value was 215.1 mg and 248.2 mg.

And the “Histopathology (lung, liver, kidney, spleen, thymus, tail)” value (CD-1 mice; groups 1, 2, 3, and 5)?
Its value is “all tissues examined were considered to be within the normal range”.

What about the WBC differentials (CD-1 mice; peripheral blood, granulocyte and mononuclear cells) of the same compound?
The WBC differentials was “within normal limits”.

And the “organ systems (weights, histopathological assessments)” value (CD-1 mice; vs sham-injected controls)?
The value was “within normal weight limits”.

Source: patent US5098933A, “Pharmaceutically useful Michael addition products of unsaturated aldehydes and ketones and ascorbic acid” (Theracel Corporation, priority 1990, dated 1992)
